Test results from patent publication US9371527B2, “Compositions and methods related to protein displacement therapy for myotonic distrophy” (University of Rochester, priority 2006, dated 2016).
“Also recorded” adds a separate entry of the source.

Columns and labels:
Mbnl1^ΔE3/ΔE3 mice = test: Electromyography of myotonia, Mbnl1^ΔE3/ΔE3 mice; format: in vivo; details: TA muscle, 3 weeks
Procedure: FIGS. 27A, 27B, 27C, 27D, and 27E show antisense morpholino represses exon 7a inclusion, restores ClC-1 protein expression, and rescues myotonia in Mbnl1^ΔE3/ΔE3 mice. […] Bar=20 μM. […] Mean±s.d.; n=3 per group; **P<0.0001 antisense- versus invert-treated control; ANOVA.
EMG was performed under general anesthesia as described previously (Kanadia, R. N., et al. (2003) Science 302:1978-1980). Images and video recordings of electromyographic myotonia in HSA^LR and Mbnl1^ΔE3/ΔE3 mice are shown in previous reports (Kanadia, R. N., et al. (2003) Science 302:1978-1980; Mankodi, A., et al. (2000) Science 289:1769-1773). A minimum of 15 needle insertions were performed for each muscle examined Myotonic discharges were graded on a 4 point scale: 0, no myotonia; 1, occasional myotonic discharge in <50% of needle insertions; 2, myotonic discharge in >50% of needle insertions; 3: myotonic discharge with nearly every insertion.

ClC-1 mRNA = test: Quantitative real time RT-PCR of ClC-1 mRNA level; format: in vivo, HSA^LR mice; details: 3 weeks after treatment, relative to RNA polymerase II transcription factor IIB
Excerpt: (§1) HSA^LR and WT mice have the same (FVB) inbred strain background. […] FIGS. 25D and 25E show the percentage of ClC-1 splice products that include exon 7a is shown at 3 (D) and 8 (E) weeks following morpholino injection. Mean±s.d.; n=3 per group; **P<0.001; *P=0.035 antisense- versus invert-treated controls; t-test. […] ClC-1 mRNA level is expressed in arbitrary units relative to housekeeping gene RNA polymerase II transcription factor IIB. Mean±s.d.; n=3 per group; *P=0.06 for antisense vs invert-treated control; t-test.
(§2) RT-PCR products (22 cycles) were separated on agarose gels, stained with SYBR green II, and scanned on a laser fluorimager (Molecular Dynamics). Band intensity was quantified using ImageQuant software. Total levels of ClC-1 mRNA were determined by quantitative real-time RT-PCR (Taqman, Applied Biosystems) relative to housekeeping gene RNA polymerase II transcription factor IIB.

ClC-1 exon 7a = test: RT-PCR of ClC-1 exon 7a splicing after ClC-1 antisense morpholino, HSA^LR mice; format: in vivo; details: TA muscle; for comparison of exon 7a skipping between antisense morpholinos: 3 weeks, 20 μg total
Procedure: (§3) FIGS. 21A, 21B, 21C, and 21D show the effects of antisense morpholino targeting the 3′ splice junction of ClC-1 exon 7a on splicing and myotonia in HSA^LR transgenic mice. Antisense morpholino targeting the 3′ splice junction of ClC-1 exon 7a was injected into tibialis anterior muscle of HSA^LR mice under general anesthesia (sequence 5′-[…]-3′ (SEQ ID NO: 4)). The contralateral muscle was injected with morpholino having the inverted sequence (5′-[…]-3′(SEQ ID NO: 5)). Uptake into muscle fibers was enhanced by in vivo electroporation. The determination of which side received the antisense morpholino was randomized. 21 days later, myotonia was evaluated by electromyography and muscle was harvested for RT-PCR analysis of ClC-1 alternative splicing. Electromyography was blinded to the randomization.
(§4) HSA^LR (Mankodi, A., et al. (2000) Science 289:1769-1773) or Mbnl1^ΔE3/ΔE3 mice (Kanadia, R. N., et al. (2003) Science 302:1978-1980) were anesthetized by intraperitoneal injection of 100 mg/kg ketamine, 10 mg/kg xylazine, and 3 mg/kg acepromazine. TA muscle was pretreated by intramuscular injection of bovine hyaluronidase (15 μl, 0.4 U/μl) (Sigma) (McMahon, J. M., et al. (2001) Gene Ther 8:1264-1270). Two hours later, 10 or 20 μg of morpholino in a total volume of 20 μl phosphate buffered saline (PBS) was injected using a 30-gauge needle. TA muscle was then electroporated using electrodes placed parallel to the long axis of the muscle. Electroporation parameters were 100 V/cm, 10 pulses at 1 Hz, and 20 ms duration per pulse. Antisense or control morpholino with inverted sequence was injected into TA muscles of opposite limbs. The determination of which TA received antisense morpholino was randomized, and investigators remained blinded to this assignment until EMG analyses were completed. Other analyses were performed without blinding. For experiments to determine the distribution of injected oligos, the antisense morpholino was labeled with carboxyfluorescein and cryosections of muscle (10 μM) were examined by fluorescence microscopy, with or without fixation in 4% paraformaldehyde. Some sections were co-labeled with TRITC-wheat germ agglutinin (Parsons, S. A., et al. (2003) Mol Cell Biol 23:4331-4343) (50 μg/ml in PBS; Sigma) and 4′,6-diamidino-2-phenylindole (DAPI) to highlight the surface membranes and nuclei of muscle fibers.
(§5) Mice were sacrificed three or eight weeks after morpholino injection. TA muscles were removed and frozen in liquid nitrogen. Total RNA was isolated with TriReagent (Molecular Research Center). cDNA synthesis was primed with oligo dT as described previously (Mankodi, A., et al. (2002) Mol Cell 10:35-44). Assays for alternative splicing of ClC-1 and Titin were described previously (Mankodi, A., et al. (2002) Mol Cell 10:35-44; Lin, X., et al. (2006) Hum Mol Genet 15:2087-2097). Primer sequences were
as §2

[1] = system: Titin, ZASP, Serca1 alternative splicing; test: RT-PCR of alternative splicing of other genes misregulated in DM1 after ClC-1 antisense morpholino; format: in vivo, HSA^LR mice; details: HSA^LR TA muscle
Excerpt: as §1, §5, §2

HSA^LR mice = test: Electromyography of myotonia after ClC-1 antisense morpholino, HSA^LR mice; format: in vivo; details: TA muscle
Procedure: as §3, with “21 days later, myotonia was evaluated by electromyography and muscle was harvested for RT-PCR analysis of ClC-1 alternative splicing.” left out
as §4
EMG was performed under general anesthesia as described previously (Kanadia, R. N., et al. (2003) Science 302:1978-1980). Images and video recordings of electromyographic myotonia in HSA^LR and Mbnl1^ΔE3/ΔE3 mice are shown in previous reports (Kanadia, R. N., et al. (2003) Science 302:1978-1980; Mankodi, A., et al. (2000) Science 289:1769-1773). […]

Row | Substance | myotonia (EMG) (Mbnl1^ΔE3/ΔE3 mice; listed as antisense morpholino) | level of ClC-1 mRNA (ClC-1 mRNA; listed as antisense morpholino) | ClC-1 exon 7a inclusion (ClC-1 exon 7a; 3 weeks (21 days) after single injection + electroporation, listed as antisense morpholino) | comparison of exon 7a skipping between antisense morpholinos (ClC-1 exon 7a) | comparison of exon 7a skipping between antisense morpholinos (ClC-1 exon 7a; listed as AON targeting the 3′ splice site) | ClC-1 exon 7a inclusion (ClC-1 exon 7a; 8 weeks after injection, 20 μg) | ClC-1 exon 7a inclusion (ClC-1 exon 7a; 8 weeks after injection, 20 μg, listed as antisense morpholino) | fraction of splice products encoding functional ClC-1 channels (band 1) (ClC-1 exon 7a; 21 days) | alternative splicing of Serca1 [1] | alternative splicing of ZASP [1] | alternative splicing of Titin m-line exon 5 ([1]; listed as ClC-1 antisense morpholino) | alternative splicing of Titin m-line exon 5 ([1]; listed as antisense morpholino) | myotonia (EMG) (HSA^LR mice; 3 weeks (21 days) after injection, listed as antisense morpholino) | myotonia (EMG) (HSA^LR mice; 8 weeks after injection, listed as antisense morpholino) | myotonia (EMG) (Mbnl1^ΔE3/ΔE3 mice) | level of ClC-1 mRNA (ClC-1 mRNA) | ClC-1 exon 7a inclusion (ClC-1 exon 7a; 3 weeks (21 days) after single injection + electroporation) | myotonia (EMG) (HSA^LR mice; 3 weeks (21 days) after injection) | myotonia (EMG) (HSA^LR mice; 8 weeks after injection)
1 | antisense 1: morpholino 5′-CCAGGCACGGTCTGCAACAGAGAAG-3′ targeting the 3′ splice site of ClC-1 exon 7a (all phosphorodiamidate morpholino (PMO)) | reduced the myotonia | increased levels of ClC-1 mRNA | significant reduction of exon 7a inclusion; also recorded: suppressed to wild type (WT) levels | higher level of exon 7a skipping | more effective than targeting the 5′ splice site alone | remained partially suppressed | partial exclusion of exon 7a | increases the fraction of splice products encoding functional ClC-1 channels | nor did it correct the alternative splicing | nor did it correct the alternative splicing | did not correct the misregulated alternative splicing of Titin m-line exon 5 | nor did it correct the alternative splicing | marked reduction of myotonia; also recorded: markedly reduced or absent; also recorded: significantly reduced | markedly reduced or absent; also recorded: significantly reduced |  |  |  |  | 
2 | control morpholino: control morpholino 5′-GAAGAGACAACGTCTGGCACGGACC-3′, the 5′-3′ invert of the 3′ splice site blocker (all phosphorodiamidate morpholino (PMO)) [reference compound] |  |  |  |  |  |  |  |  |  |  |  |  |  |  | not in muscle treated with invert control | not control morpholino with inverted sequence | no effect on ClC-1 splicing; also recorded: not different from untreated HSA^LR muscle | not different from uninjected muscle | not different from uninjected muscle
